Laboratory results: ChEMBL document CHEMBL4665644, “L-DOPA-quinone Mediated Recovery from GIRK Channel Firing Inhibition in Dopaminergic Neurons” (ACS Med Chem Lett, 2019)

Assays:
[1] = target: T1, G protein-activated inward rectifier potassium channel 2 (Mus musculus) (UniProt P48542); assay: Stabilization of GIRK2 channel in C57BL6 mouse brain DAergic neurons assessed as recovery of GABAB receptor stimulation-mediated firing inhibition treated with 100 uM dopamine and 10 uM sulpiride D2 antagonist under continuous perfusion followed by 300 nM baclofen treated at 300 uM measured after 15 mins by multi-electrode array (reference value: 24.94 +-/ 14.46%); type: tissue-based; design: scale not given: the % may be the effect or the level left
T1 sequence (whole entry): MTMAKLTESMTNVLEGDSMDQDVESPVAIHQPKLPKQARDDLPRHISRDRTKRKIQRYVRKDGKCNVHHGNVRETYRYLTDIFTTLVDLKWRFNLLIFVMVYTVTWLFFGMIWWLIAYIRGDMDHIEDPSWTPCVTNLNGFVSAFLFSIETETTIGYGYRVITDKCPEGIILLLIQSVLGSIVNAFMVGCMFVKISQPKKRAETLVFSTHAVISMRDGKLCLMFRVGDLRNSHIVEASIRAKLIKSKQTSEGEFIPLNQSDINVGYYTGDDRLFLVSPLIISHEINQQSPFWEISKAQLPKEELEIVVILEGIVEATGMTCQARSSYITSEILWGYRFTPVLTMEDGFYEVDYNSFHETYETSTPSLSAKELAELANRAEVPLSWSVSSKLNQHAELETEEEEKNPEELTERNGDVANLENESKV

[2] = target: T1, G protein-activated inward rectifier potassium channel 2 (Mus musculus); assay: Stabilization of GIRK2 channel in C57BL6 mouse brain DAergic neurons assessed as recovery of D2 receptor stimulation-mediated firing inhibition in presence of 100 nM quinpirole under continuous perfusion followed by treated at 300 uM measured after 15 mins by multi-electrode array (reference value: 4.07 +-/ 3.6%); type: tissue-based; design: scale not given: the % may be the effect or the level left

Activity [1]: 73.6% | Activity [2]: 81.8%
Compound: N[C@@H](CC1=CC(=O)C(=O)C=C1)C(=O)O
